Reference: US20030185792A1, “Morphogen analogs of bone morphogenic proteins” (Curis, Inc., priority 1996, published 2003)
“Also recorded” adds a separate entry of the source. One block for each substance: values may come before it. Bridge positions count the residues as written; N and C are the ends. Ends that are not written are not given here.

Legend:
ROS cells = experiment: ROS cell based alkaline phosphatase bioassay; design: species or system rat; conditions: for effect on OP-1 induced cell responsiveness (agonist/antagonist behaviour): peptide together with OP-1; for IC50: peptide together with OP-1 (1.33 nM), read-out: peptide concentration giving 50% inhibition of cellular responsiveness to OP-1; for effect on basal cell responsiveness (alkaline phosphatase activity): no OP-1
Description: In a first series of experiments, increasing concentrations of peptides F2-2 (FIG. 9A), F2-3 (FIG. 9B), Hn-2 (FIG. 9C) and Hc-2 (FIG. 9D) were added to ROS cells either alone (open bars) or in combination with 40 ng/ml soluble OP-1 (filled bars) and their effect on alkaline phosphatase activity measured. Soluble OP-1 is the form of OP-1 in which the pro-domain is still attached to the mature portion of OP-1 (see WO 94/03600). A basal alkaline phosphatase activity is shown by the line and represents the alkaline phosphatase activity of cells incubated in the absence of both soluble OP-1 and peptide.
(§1) Assay of peptides: The receptor-binding activities of OP-1 synthetic peptides were determined by a radio-ligand receptor assay using ^125I-labeled OP-1 as ligand, and an OP-1 receptor-enriched plasma membrane fraction of ROS cells. The assay is based on competition between radiolabeled OP-1 and unlabeled OP-1 or peptide for binding to membrane-bound receptor. A well characterized ROS cell based in vitro bio-assay was used to examine the effects of OP-1 peptides on basal as well as OP-1 induced cellular alkaline phosphatase activity.
i. ROS Cell Based Alkaline Phosphatase Assay: OP-1 synthetic peptides that bind OP-1 receptors are further analyzed by in vitro bioassay. This allows defining the role of OP-1 peptides at the receptor-binding site. Some of the OP-1 peptides that effectively interact with receptors could inhibit OP-1 induced target cell responsiveness, thereby acting as functional antagonists. Alternatively, they may mimic OP-1 functions inducing alkaline phosphatase activity in ROS cells. Creative BioMolecules has developed and fully validated ROS cell in vitro assay for OP-1. An assay procedure as described earlier is essentially followed to determine the biological activities of OP-1 peptides. In a typical experiment, rat Osteosarcoma (17/2.8) cells are plated in 96 well plates (3.0×10^4 cells/well) and incubated overnight at 37° C. in 5-6% CO2 incubator. Next day, the plates are examined to make sure that cells are healthy & confluent. Cells are treated with increasing concentrations of OP-1 standard (1-10,000 ng/ml) or OP-1 synthetic peptides (0.02-200 μM) alone or with OP-1 standard prepared in medium containing 1% FBS and incubated for 2 days at 37° C. in 5-6% CO2 incubator. The cellular content of alkaline phosphatase activity is determined by the method of Reddi and Huggins. Enzyme estimations are routinely carried out in 96 well plates. Following removal of culture medium, cells are washed with pre-warmed PBS (150 μl) and further incubated in 100 ul of pre-warmed 1% Triton X-100 for 30 minutes at 37 C. Plates are centrifuged for 10 minutes at full speed, and recovered samples (each 15 μl) are assayed for enzyme activity by adding 90 ul p-nitrophenyl phosphate (Sigma) as a substrate in 0.05 M glycine-NaOH buffer, pH 9.3 and incubating for 20 minutes at 37° C. The reaction is stopped by adding 75 μl of 0.2 N NaOH/well and absorbance at 405/490 nm is measured on a Dynatech MR 700 plate reader. Results are expressed as concentration of peptide inhibitor (with antagonist activity) required to give 50% inhibition of maximum response to OP-1 standard. On the other hand, the activities of peptides that stimulate cell responsiveness (with agonist activity) are expressed relative to OP-1 standard. FIG. 23 illustrates the dose-related effects of OP-1 preparations on stimulation of alkaline phosphatase activity as determined in ROS cell based in vitro assay.

[1] = test system: OP-1 receptor-enriched plasma membrane fraction of ROS cells; experiment: Radioligand receptor assay: displacement of 125I-labeled OP-1 from ROS cell plasma membranes; assay type: binding, rat; conditions: for effect on binding of 125I-labeled OP-1 to the receptor: Example 3; for ability to displace 125I-labeled soluble OP-1 from ROS cell membranes: Example 2, FIGS. 10A and 10B
Description: In a second series of experiments, the ability of unlabeled soluble OP-1 and unlabeled peptides F1-2, F2-2, F2-3, H-n2 and H-c2 to displace ^125I labeled soluble OP-1 from ROS cell membranes was measured. The activities of peptides F2-2 and F2-3 relative to soluble OP-1 are shown in FIG. 10A, and the activities of peptides Fi-2, H-n2 and H-c2 relative to soluble OP-1 are shown in FIG. 10B. OP-1 receptor-enriched plasma membranes of ROS cells were incubated for 20 hrs at 4° C. with ^125I-labeled soluble OP-1 and unlabeled peptide. Receptor bound material was separated from unbound material by centrifugation at 39,500×g. The resulting pellet was harvested and washed with 50 mM HEPES buffer, pH 7.4 containing 5 mM MgCl2 and 1 mM CaCl2 Radioactivity remaining in the pellet was determined by means of a gamma counter.
as §1
i. Radio-receptor Assay: The receptor-binding activities of various OP-1 synthetic peptides can be determined by an equilibrium displacement binding isotherm assay using ^125I-labeled OP-1 as ligand and OP-1 receptor-enriched plasma membrane fraction of ROS cells. Highly purified OP-1 can be radioiodinated to a specific activity of 70-78 μCi/ug by a modified procedure of lactoperoxidase method. The percent bindability of radioiodinated OP-1 to excess receptor is 30-37%. Plasma membranes enriched with OP-1 receptors from ROS cells can be isolated as is known in the art. […] In a typical assay, fixed amounts of ^125I-labeled sol. OP-1 (˜80,000 cpm) are incubated with fixed amount of receptor-enriched plasma membrane fraction in the presence (5 μg, for non-specific binding) or absence of excess unlabeled OP-1 (for total binding). Displacement curves are generated with increasing concentrations of OP-1 peptide (0.032-50 μM) or OP-1 standard preparation (5-2000 ng). The assay incubations are carried out in a reaction volume of 300 μl with shaking for 22 hrs. at 4° C. Separation of bound and free ^125I-labeled OP-1 is by centrifugation (39,500×g, 30 minutes). The supernatants are aspirated and pellets are washed before counting in a gamma counter (Packard Instr., Downers Grove, Ill.). The concentration of OP-1 peptide required to give 50% inhibition of total specific binding of ^125I-labeled OP-1 (ED50) is calculated from competitive data.

IC50 (ROS cells; Example 3): 20 µM
Substance: F1-1: SEQ ID No. 5; cyclized peptide covering the complete finger 1 region of OP-1 (CELYVSFRDLGWQDWIIAPEGYAAYC; cyclized; listed as Homo sapiens)
peptide concentrations effective to inhibit basal cellular responsiveness (ROS cells; Example 3, peptide alone): 52 to 260 µM
effect on OP-1 induced cell responsiveness (agonist/antagonist behaviour) (ROS cells; Example 3): antagonists
effect on binding of 125I-labeled OP-1 to the receptor [1]: interfered

IC50 (ROS cells; Example 3): 10 µM
Substance: F1-2: SEQ ID No. 6; 15-residue finger 1 loop region peptide cyclized at the ends (CFRDLGWQDWIIAPC; cyclized; listed as Homo sapiens)
effect on basal cell responsiveness (alkaline phosphatase activity) (ROS cells; Example 3, peptide alone): weakly inhibiting
effect on OP-1 induced cell responsiveness (agonist/antagonist behaviour) (ROS cells; Example 3): relatively weak antagonist
effect on OP-1 induced cell responsiveness (agonist/antagonist behaviour) (ROS cells; Example 3, listed as Fi-2): antagonists
ability to displace 125I-labeled soluble OP-1 from ROS cell membranes [1]: little or no ability to displace
effect on binding of 125I-labeled OP-1 to the receptor [1]: relatively weak activity
peptide concentration required to inhibit binding of 125I-labeled OP-1 to the receptor ([1]; Example 3, FIG. 14): 179 µM
effect on binding of 125I-labeled OP-1 to the receptor ([1]; listed as Fi-2): interfered

IC50 (ROS cells; Example 3): 8 µM
Substance: F2-1: SEQ ID No. 16; covers the entire finger 2 region of OP-1, cyclized close to the knot region (CLNAISVLYFDDSSNVILKKYRNMVVRC; disulfide 1-28 (inferred); listed as Homo sapiens)
effect on basal cell responsiveness (alkaline phosphatase activity) (ROS cells; Example 3, peptide alone): effectively inhibited
effect on OP-1 induced cell responsiveness (agonist/antagonist behaviour) (ROS cells; Example 3): effectively inhibited

The next lines start with the substance.

Substance: F2-2: SEQ ID No. 17; 9 residues at the tip of finger 2 including 2 Asp residues, ends cyclized (CYFDDSSNVIC; cyclized; listed as Homo sapiens)
behaviour in the alkaline phosphatase assay (agonist/antagonist) (ROS cells; Example 2, alone or with 40 ng/ml soluble OP-1): weak OP-1 agonists
effect on responsiveness to OP-1 (ROS cells; Example 3, at higher peptide concentrations (above 0.6-60 μM)): inhibited the responsiveness to OP-1
potentiation of OP-1 induced cell responsiveness (ROS cells; Example 3, peptide 0.6-60 μM, FIG. 16): 20%
effect on OP-1 induced cell responsiveness (agonist/antagonist behaviour) (ROS cells; Example 3): weak agonist; also recorded: potentiating the cell responsiveness to OP-1
peptide concentrations at which OP-1 induced responsiveness is potentiated (ROS cells; Example 3, with OP-1): 0.6 to 60 µM
increase of alkaline phosphatase activity relative to soluble OP-1 alone (ROS cells; peptide about 60 μM with 40 ng/ml soluble OP-1, FIG. 9A): about 20%
effect on basal alkaline phosphatase level (ROS cells; peptide alone, about 60 μM, Example 2, FIG. 9A): double
ability to displace 125I-labeled soluble OP-1 from ROS cell membranes [1]: cannot completely displace
effect on binding of 125I-labeled OP-1 to the receptor [1]: effectively competed

Substance: F2-2c: SEQ ID No. 18; control cyclized peptide, 9 residues of F2-2 in reverse order (CIVNSSDDFYC; disulfide 1-11 (inferred); listed as Homo sapiens) [reference compound]
effect on basal cell responsiveness (alkaline phosphatase activity) (ROS cells; Example 3, peptide alone): no effect
effect on OP-1 induced cell responsiveness (agonist/antagonist behaviour) (ROS cells; Example 3): no effect
effect on binding of 125I-labeled OP-1 to the receptor [1]: inactive

Substance: H-1: SEQ ID No. 11; covers the whole Heel region, cyclized near the knot region (CAFPLNSYMNATNHAIVQTLVHFINPETVPKC; disulfide 1-32 (inferred); listed as Homo sapiens)
effect on basal cell responsiveness (alkaline phosphatase activity) (ROS cells; Example 3, peptide alone): effective only at very high concentrations
effect on OP-1 induced cell responsiveness (agonist/antagonist behaviour) (ROS cells; Example 3): weak antagonist; also recorded: antagonists
peptide concentrations required to inhibit the OP-1 induced cell response (ROS cells; Example 3, with OP-1): 44 to 220 µM
effect on binding of 125I-labeled OP-1 to the receptor [1]: interfered

Substance: H-C2: SEQ ID No. 13; 7 residues (plus Cys) in the loop on the C-terminal end of the Heel helix (CCFINPETVCC; listed as Homo sapiens)
effect on basal cell responsiveness (alkaline phosphatase activity) (ROS cells; Example 3, peptide alone): inhibiting the basal
effect on OP-1 induced cell responsiveness (agonist/antagonist behaviour) (ROS cells; Example 3): antagonists
IC50 (ROS cells; Example 3): 5 µM
overall judgement of activity (lead peptides) (ROS cells; Example 3 summary, antagonistic (H-C2) and modulating (F2-3) activity): highly active
peptide concentration at which the activity of soluble OP-1 is antagonized (ROS cells; with 40 ng/ml soluble OP-1, FIG. 9D): greater than 5 μM
ability to displace 125I-labeled soluble OP-1 from ROS cell membranes [1]: little or no ability to displace
effect on binding of 125I-labeled OP-1 to the receptor [1]: interfered
effect on binding of 125I-labeled OP-1 to the receptor ([1]; peptide at 8 μM, FIG. 14): potentiated
